Numbered stars: 1 amine (or outer) side, 2 acyl side, 3 side chain; on linkers, the order of the positions; unused ones are H or OH. Bridge positions count the residues as written; N and C are the ends. Square brackets hold non-standard residues; d marks the D form. Peptide text beside a SMILES is read from it. * marks the point of attachment. X1 = O=C1C[C@@H](C(=O)[*:2])N([*:1])C[C@H]1CS[C@@H]1CN2CCC1CC2; NMePhe(4-NMe2) = CN[C@@H](Cc1ccc(N(C)C)cc1)C(=O)O; Picolinoyl(3-OH) = O=C(c1ncccc1O)*; Phg = N[C@H](C(=O)O)c1ccccc1; dAbu = CC[C@@H](N)C(=O)O
Experiment: solubility in water (as salts / hydrochlorides)
Settings: product with 0.1N hydrochloric acid and distilled water

CC[C@H]1NC(=O)[C@@H](NC(=O)c2ncccc2O)[C@@H](C)OC(=O)[C@H](c2ccccc2)NC(=O)[C@@H]2CC(=O)[C@H](CS[C@@H]3CN4CCC3CC4)CN2C(=O)[C@H](Cc2ccc(N(C)C)cc2)N(C)C(=O)[C@@H]2CCCN2C1=O [Example 1, 5δ-[(3-Quinuclidinyl)thiomethyl]pristinamycin IA] ({Picolinoyl(3-OH)}-T[dAbu]P[NMePhe(4-NMe2)][X1][Phg]; ester 1-C)
strength of aqueous solution obtained: 5%
